Source: US5789431A, “Naphthoquinone antitumor compound and method” (The University of North Carolina at Chapel Hill, priority 1996, dated 1998)
Where two headings read alike, the source gives them in different places.

What was measured:
DLD-1 = test: in vitro colon cancer cell growth inhibition (NCI screen)
UACC-62 = test: in vitro melanoma cell growth inhibition (NCI screen)
HCT-15 = test: in vitro colon cancer cell growth inhibition (NCI screen)
LXFL 529 = test: in vitro non-small cell lung cancer cell growth inhibition (NCI screen)
NCI-H460 = test: as above
HCT-116 = test: in vitro colon cancer cell growth inhibition (NCI screen)
786-0 = test: in vitro renal cancer cell growth inhibition (NCI screen)
SNB-78 = test: in vitro CNS cancer cell growth inhibition (NCI screen)
HL-60(TB) = test: in vitro leukemia cell growth inhibition (NCI screen)
NCI-H522 = test: in vitro non-small cell lung cancer cell growth inhibition (NCI screen)
LOX1MVI = test: in vitro melanoma cell growth inhibition (NCI screen)
OVCAR-8 = test: in vitro ovarian cancer cell growth inhibition (NCI screen)
KM 20L2 = test: in vitro colon cancer cell growth inhibition (NCI screen)
CCRF-CEM [1] = test: in vitro leukemia cell growth inhibition (NCI screen)
HT 29 = test: in vitro colon cancer cell growth inhibition (NCI screen)
U 251 = test: in vitro CNS cancer cell growth inhibition (NCI screen)
SR = test: in vitro leukemia cell growth inhibition (NCI screen)
K-562 [2] = test: as above
M19-MEL = test: in vitro melanoma cell growth inhibition (NCI screen)
MOLT-4 [3] = test: in vitro leukemia cell growth inhibition (NCI screen)
human tumor cell lines = assay type: cell-based; conditions: Homo sapiens; non-small cell lung, CNS, melanoma, colon, leukemia, small cell lung, and renal cancer cell lines; read-out: logGI50 values (range over cell lines) (converted)
SF-268 = test: in vitro CNS cancer cell growth inhibition (NCI screen)
SF-539 = test: as above
NCI-H23 = test: in vitro non-small cell lung cancer cell growth inhibition (NCI screen)
XF-498 = test: in vitro CNS cancer cell growth inhibition (NCI screen)
OVCAR-3 = test: in vitro ovarian cancer cell growth inhibition (NCI screen)
HOP-18 = test: in vitro non-small cell lung cancer cell growth inhibition (NCI screen)
SW 620 = test: in vitro colon cancer cell growth inhibition (NCI screen)
SK-MEL-28 = test: in vitro melanoma cell growth inhibition (NCI screen)
SK-MEL-5 = test: as above
SN12C = test: in vitro renal cancer cell growth inhibition (NCI screen)
TK-10 = test: as above
SNB-75 = test: in vitro CNS cancer cell growth inhibition (NCI screen)
NCI-H266 = test: in vitro non-small cell lung cancer cell growth inhibition (NCI screen)
M14 = test: in vitro melanoma cell growth inhibition (NCI screen)
RXF-393 = test: in vitro renal cancer cell growth inhibition (NCI screen)
UACC-257 = test: in vitro melanoma cell growth inhibition (NCI screen)
UO-31 = test: in vitro renal cancer cell growth inhibition (NCI screen)
MALME-3M = test: in vitro melanoma cell growth inhibition (NCI screen)
HOP-92 = test: in vitro non-small cell lung cancer cell growth inhibition (NCI screen)
CAKI-1 = test: in vitro renal cancer cell growth inhibition (NCI screen)
PC-3 = test: in vitro prostate cancer cell growth inhibition (NCI screen)
CCRF-CEM [4] = conditions: human, ccrf-cem cells
K-562 [5] = conditions: human, k-562 cells
T-47D = test: in vitro breast cancer cell growth inhibition (NCI screen)
MDA-N = test: as above
COLO-205 = test: in vitro colon cancer cell growth inhibition (NCI screen)
MOLT-4 [6] = conditions: human, molt-4 cells
MDA-MB-435 = test: in vitro breast cancer cell growth inhibition (NCI screen)
SK-MEL-2 = test: in vitro melanoma cell growth inhibition (NCI screen)
OVCAR-5 = test: in vitro ovarian cancer cell growth inhibition (NCI screen)
OVCAR-4 = test: as above; conditions: OVACR-4
DU-145 = test: in vitro prostate cancer cell growth inhibition (NCI screen)
HCC-2998 = test: in vitro colon cancer cell growth inhibition (NCI screen)
IGROV1 = test: in vitro ovarian cancer cell growth inhibition (NCI screen)
MCF-7 = test: in vitro breast cancer cell growth inhibition (NCI screen)
BT-549 = test: as above

Row | Compound | cytotoxicity log GI50 (DLD-1) | cytotoxicity log GI50 (UACC-62) | cytotoxicity log GI50 (HCT-15) | cytotoxicity log GI50 (LXFL 529) | cytotoxicity log GI50 (NCI-H460) | cytotoxicity log GI50 (HCT-116) | cytotoxicity log GI50 (786-0) | cytotoxicity log GI50 (HL-60(TB)) | cytotoxicity log GI50 (NCI-H522) | cytotoxicity log GI50 (LOX1MVI) | cytotoxicity log GI50 (OVCAR-8) | cytotoxicity log GI50 (KM 20L2) | cytotoxicity log GI50 (CCRF-CEM [1]) | cytotoxicity log GI50 (HT 29) | cytotoxicity log GI50 (K-562 [2]) | cytotoxicity log GI50 (SF-539) | cytotoxicity log GI50 (NCI-H23) | cytotoxicity log GI50 (M14) | cytotoxicity log GI50 (UACC-257) | cytotoxicity log GI50 (MALME-3M) | also measured
1 | Cc1nc2c(n1Cc1ccc(Cl)cc1)C(=O)c1ccccc1C2=O [Compound 20] | -5.38 M | -5.47 M | -5.97 M | -5.26 M | -5.76 M | -5.59 M | -5.25 M | -5.36 M | -5.26 M | -5.69 M | -5.05 M | -5.09 M | -5.33 M | -5.39 M | -5.69 M | -5.60 M |  |  |  |  | cytotoxicity log GI50 (SNB-78): -5.03 M; cytotoxicity log GI50 (U 251): -5.46 M; cytotoxicity log GI50 (SR): -5.88 M; cytotoxicity log GI50 (M19-MEL): -4.93 M; cytotoxicity log GI50 (MOLT-4 [3]): -5.50 M; GI50 (human tumor cell lines): 1 to 10 µM; cytotoxicity log GI50 (SF-268): -5.29 M
2 | CC(=O)NC1=C(NCC(C)C)C(=O)c2ccccc2C1=O [Compound 31] | -4.72 M | -4.74 M | -4.75 M | -4.79 M |  | -4.69 M | -4.84 M | -5.56 M |  | -4.81 M |  | -4.67 M | -5.14 M |  | -4.81 M | -4.76 M | -4.70 M | -4.74 M | -4.73 M | -4.72 M | cytotoxicity log GI50 (XF-498): -4.85 M; cytotoxicity log GI50 (OVCAR-3): -4.78 M; cytotoxicity log GI50 (HOP-18): -4.89 M; cytotoxicity log GI50 (SW 620): -4.68 M; cytotoxicity log GI50 (SK-MEL-28): -4.77 M; cytotoxicity log GI50 (SK-MEL-5): -4.70 M; cytotoxicity log GI50 (SN12C): -4.77 M; cytotoxicity log GI50 (TK-10): -4.68 M; cytotoxicity log GI50 (SNB-75): -4.77 M; cytotoxicity log GI50 (NCI-H266): -4.80 M; cytotoxicity log GI50 (RXF-393): -4.90 M; cytotoxicity log GI50 (UO-31): -4.74 M; cytotoxicity log GI50 (M19-MEL): -4.73 M; cytotoxicity log GI50 (HOP-92): -4.85 M; cytotoxicity log GI50 (CAKI-1): -4.78 M; cytotoxicity log GI50 (SF-268): -4.69 M
3 | CC(=O)NC1=C(NCCCl)C(=O)c2ccccc2C1=O [Compound 43] |  | -4.70 M |  |  |  | -4.69 M |  |  | -4.69 M |  | -4.70 M |  |  | -4.58 M |  |  | -4.58 M | -4.89 M | -4.82 M | -4.86 M | cytotoxicity log GI50 (PC-3): -4.65 M; cytotoxicity log GI50 (SW 620): -4.60 M; cytotoxicity log GI50 (CCRF-CEM [4]): -4.72 M; cytotoxicity log GI50 (SK-MEL-5): -4.77 M; cytotoxicity log GI50 (K-562 [5]): -4.55 M; cytotoxicity log GI50 (SNB-75): -4.61 M; cytotoxicity log GI50 (T-47D): -4.60 M; cytotoxicity log GI50 (MDA-N): -4.67 M; cytotoxicity log GI50 (COLO-205): -4.55 M; cytotoxicity log GI50 (MOLT-4 [6]): -4.60 M; cytotoxicity log GI50 (MDA-MB-435): -4.78 M
4 | COC(=O)CCCC(=O)NC1=C(Nc2ccc(OC)cc2)C(=O)c2ccccc2C1=O [Compound 53] |  | -4.89 M |  |  | -4.80 M | -4.71 M |  |  |  |  |  |  |  |  |  | -4.71 M | -4.69 M | -4.71 M | -4.74 M | -5.47 M | cytotoxicity log GI50 (OVCAR-3): -5.20 M; cytotoxicity log GI50 (SK-MEL-28): -4.68 M; cytotoxicity log GI50 (SK-MEL-2): -4.75 M; cytotoxicity log GI50 (OVCAR-5): -4.73 M; cytotoxicity log GI50 (OVCAR-4): -4.75 M; cytotoxicity log GI50 (DU-145): -4.79 M; cytotoxicity log GI50 (HCC-2998): -4.69 M; cytotoxicity log GI50 (IGROV1): -4.74 M; cytotoxicity log GI50 (MDA-N): -4.68 M; cytotoxicity log GI50 (MCF-7): -4.77 M; cytotoxicity log GI50 (BT-549): -4.71 M; cytotoxicity log GI50 (MDA-MB-435): -4.74 M
